Key:
Format in all cases: cell-based
[1] = test system: Influenza virus A/AA/6/60
S. typhimurium = test system: S. typhimurium
S. dysenteriae = conditions: 15 minutes; bacteria alone 910,000 CFU; X8P 1/100 dilution; EDTA 50-25 μM

Molecule | inhibition of infectivity of influenza A virus [1] | reduction of influenza A infection of MDCK cells [1] | bacterial count after treatment (CFU) (S. typhimurium) | bacterial count after treatment (CFU) (S. dysenteriae)
4-(1,1,3,3-Tetramethylbutyl)phenvl-polyethylene glycol [TRITON X-100] | only partially inhibited | completely ineffective |  | 
O=C(O)CN(CCN(CC(=O)O)CC(=O)O)CC(=O)O [EDTA, ethylenediamine-tetraacetic acid] |  |  | 790,000 CFU | 320,000 CFU

Reference: patent US7314624B2 (priority 2001, dated 2008)
